This passage reports GI50 and TGI results from PubChem BioAssay (NCI).

Structures are written as SMILES.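 Briefly, cells in 96-well plates were exposed to five compound concentrations for 48 h, and endpoints were estimated by linear interpolation. GI50: concentration for 50% inhibition of growth. TGI is the concentration that stops growth completely.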 Some results are limits rather than exact numbers.

Test systems include HCT-116 colon; SF-295 CNS; ACHN renal; NCI-H23 lung; SR leukemia; NCI-H226 lung; SK-MEL-28 melanoma; MALME-3M melanoma; SW-620 colon; OVCAR-5 ovarian.
Experiment in all cases: growth of human tumour cells (NCI), 48 h

Take `CCCc1cc(=O)oc2c(C(=O)CC(C)C)c(O)c(CC=C(C)C)c(O)c12`: the GI50 in the assay on HCT-116 colon was 8.59 µM; with SF-295 CNS, 7.81 µM; in the assay with ACHN renal it was 7.53 µM; with NCI-H23 lung it was 4.05 µM; with SR leukemia, 16.2 µM; with NCI-H226 lung, 11.8 µM. Besides, the figures for the GI50 in the assay with SK-MEL-28 melanoma, in the assay on MALME-3M melanoma and in the assay with SW-620 colon were 6.21 µM, 9.89 µM and 14.9 µM, respectively. Further, the TGI in the assay on HCT-116 colon was more than 50 µM; with SF-295 CNS, 31.3 µM; in the assay on ACHN renal, 47.1 µM; in the assay on NCI-H23 lung it was 45.8 µM; with SR leukemia it was more than 50 µM; in the assay on NCI-H226 lung, 38.5 µM. Moreover, the TGI with SK-MEL-28 melanoma was more than 50 µM; in the assay on MALME-3M melanoma, 32.4 µM; in the assay on SW-620 colon, more than 50 µM.

In the case of `Cc1cc(C)nc(NS(=O)(=O)c2ccc(Nc3c4ccccc4nc4c(C(=O)NCCN(C)C)ccc(Cl)c34)cc2)n1`, the TGI in the assay with HCT-116 colon is 7.23 µM; in the assay with SF-295 CNS, 5.91 µM; in the assay with ACHN renal, 8.97 µM; in the assay with NCI-H23 lung, 11.7 µM; in the assay on SR leukemia it was 5.46 µM; in the assay on NCI-H226 lung, 2.77 µM. The TGI was 17.9 µM with SK-MEL-28 melanoma, 14.9 µM in the assay with OVCAR-5 ovarian and 9.04 µM with SW-620 colon.

Regarding `Fc1ccc(-c2nc(-c3nc4ccc(Cl)cc4[nH]3)cc3c2[nH]c2ccccc23)cc1`, the GI50 in the assay on HCT-116 colon was 3.29 µM; in the assay on ACHN renal, 3.06 µM; with NCI-H23 lung it was 3.66 µM; in the assay on SR leukemia, 3.71 µM; in the assay on NCI-H226 lung, 3.34 µM; in the assay on SK-MEL-28 melanoma, 4.25 µM. Also, the GI50 is 4.54 µM with MALME-3M melanoma, 6.13 µM in the assay with OVCAR-5 ovarian and 4 µM in the assay on SW-620 colon. Also, the TGI with HCT-116 colon is 12.5 µM; in the assay with ACHN renal it was 13.7 µM; in the assay with NCI-H23 lung it was 21.1 µM; in the assay on SR leukemia, more than 100 µM; with NCI-H226 lung, 15.5 µM; in the assay on SK-MEL-28 melanoma it was 14.9 µM. Also, the TGI is 17.3 µM in the assay on MALME-3M melanoma, 22.1 µM with OVCAR-5 ovarian and 19.2 µM in the assay with SW-620 colon.

Regarding `CC(C)c1cc(C(C)C)c(S(=O)(=O)NN)c(C(C)C)c1`, the TGI with HCT-116 colon, in the assay on SF-295 CNS, in the assay with ACHN renal, with NCI-H23 lung, in the assay on SR leukemia and with SK-MEL-28 melanoma was more than 100 µM throughout. Moreover, the TGI in the assay with MALME-3M melanoma, with OVCAR-5 ovarian and in the assay with SW-620 colon was more than 100 µM each time.

As to `C=C1C(=O)OC2CCCCC3OC3C12` (stereo not drawn), the TGI in the assay with HCT-116 colon amounted to 13 µM; with SF-295 CNS it was 48.6 µM; in the assay with ACHN renal it was 23 µM; in the assay on NCI-H23 lung, 32.6 µM; in the assay on SR leukemia it was 53.1 µM; with SK-MEL-28 melanoma, 23.9 µM. Further, the figures for the TGI with MALME-3M melanoma, in the assay with OVCAR-5 ovarian and with SW-620 colon were 23.1 µM, 32.3 µM and 13.3 µM, respectively.

For the compound `Nc1ccc2c(c1)C(=O)c1ccc(F)cc1-2`, the TGI with HCT-116 colon, in the assay with SF-295 CNS, in the assay with ACHN renal, in the assay on NCI-H23 lung, in the assay with SR leukemia and with NCI-H226 lung was more than 100 µM in each case. The TGI with SK-MEL-28 melanoma, with OVCAR-5 ovarian and in the assay on SW-620 colon was more than 100 µM throughout.

`COc1ccc(Nc2c3ccccc3nc3c2c2ccccc2n3C)cc1`: the GI50 is 30 µM in the assay on HCT-116 colon; 22.3 µM with SF-295 CNS; 21.6 µM in the assay with ACHN renal; 34.8 µM in the assay on NCI-H23 lung; 2.75 µM with SR leukemia; 27.6 µM in the assay with NCI-H226 lung. Besides, the GI50 with SK-MEL-28 melanoma is more than 100 µM; in the assay with OVCAR-5 ovarian it was more than 100 µM; with SW-620 colon it was 41.7 µM. Further, the TGI was more than 100 µM with HCT-116 colon; more than 100 µM in the assay on SF-295 CNS; more than 100 µM in the assay with ACHN renal; more than 100 µM in the assay with NCI-H23 lung; 14 µM with SR leukemia; more than 100 µM with NCI-H226 lung. Besides, the TGI in the assay with SK-MEL-28 melanoma, with OVCAR-5 ovarian and in the assay on SW-620 colon was more than 100 µM in each case.

On to `COc1ccc(/C=C2\N=C(c3ccccc3)OC2=O)c(OCc2ccccc2)c1`, for which the TGI in the assay with HCT-116 colon is more than 100 µM; in the assay on SF-295 CNS, 38.6 µM; in the assay on ACHN renal it was more than 100 µM; in the assay with SR leukemia, more than 100 µM; in the assay with NCI-H226 lung, more than 100 µM; in the assay with SK-MEL-28 melanoma it was more than 100 µM. For the same compound, the TGI in the assay with MALME-3M melanoma, in the assay with OVCAR-5 ovarian and in the assay with SW-620 colon was more than 100 µM throughout.

Turning to `Cc1ccc(/C=C(\C#N)n2nnc3cc(Cl)c(Cl)cc32)cc1`, the GI50 is 1.54 µM in the assay on HCT-116 colon; 1.8 µM in the assay on ACHN renal; 3.36 µM in the assay on NCI-H23 lung; 0.417 µM with SR leukemia; 2.88 µM with NCI-H226 lung; 2.05 µM in the assay on SK-MEL-28 melanoma. The values for the GI50 with MALME-3M melanoma and with OVCAR-5 ovarian were 2.18 µM and 3.25 µM, respectively. Also, the TGI in the assay with HCT-116 colon was 3 µM; with ACHN renal, 3.63 µM; in the assay on NCI-H23 lung it was more than 100 µM; in the assay with SR leukemia it was 40.6 µM; in the assay with NCI-H226 lung, more than 100 µM; in the assay on SK-MEL-28 melanoma, 4.77 µM. For the same compound, the TGI with MALME-3M melanoma turned out to be 6.21 µM; with OVCAR-5 ovarian it was 9.43 µM.

Consider `C/C(=N/O)C1CC=C(S(=O)(=O)c2ccccc2)C1` (stereo not drawn), for which the TGI with SF-295 CNS, with ACHN renal, in the assay on NCI-H23 lung, in the assay on SR leukemia, in the assay on NCI-H226 lung and with SK-MEL-28 melanoma was more than 100 µM throughout. The TGI with MALME-3M melanoma, in the assay on OVCAR-5 ovarian and in the assay with SW-620 colon was more than 100 µM throughout.

As for `O=[N+]([O-])c1cccc(C2SCc3nc4ccccc4n32)c1` (stereo not drawn), the TGI with SF-295 CNS, with ACHN renal, in the assay with NCI-H23 lung, with SR leukemia, with NCI-H226 lung and in the assay with SK-MEL-28 melanoma was more than 100 µM in each case. The TGI in the assay on MALME-3M melanoma, with OVCAR-5 ovarian and in the assay with SW-620 colon was more than 100 µM each time.
